Key:
[1] = tested on: HT-22; test: Safety ratio of MTC to that of PC50; assay type: functional, Mus musculus
[2] = tested on: HT-22; test: The concentration producing 50% toxicity in HT-22 hippocampal cell line.; assay type: functional; conditions: Mus musculus, read-out: TC50 (the source's name)
[3] = tested on: HT-22; test: The minimum tolerated concentration by MTT reduction assay in HT-22 hippocampal cell line.; assay type: functional, Mus musculus
[4] = tested on: HT-22; test: The concentration producing 50% protection against L-HCA-mediated neurotoxicity in HT-22 hippocampal cell line.; assay type: functional, Mus musculus
[5] = tested on: Mus musculus; test: Body temperature of NMRI mice after 30 minutes of intraperitoneal administration of 150 mg/kg compound.; assay type: functional
[6] = tested on: Mus musculus; test: Percent survival of NMRI mice after 5 hours of intraperitoneal administration of 150 mg/kg of compound.; assay type: functional; conditions: ip
[7] = Safety ratio of MTC to that of PC50; Not relevant; assay type: toxicity
[8] = tested on: Mus musculus; test: The compound was tested for % survival of NMRI mice after 5 hours of intraperitoneal administration of 150 mg/kg of dose; 30/60; assay type: functional; conditions: ip

Row | Molecule | Ratio [1] | CC50 [2] [µM] | MTC [3] [µM] | PC50 [4] [µM] | change in body temperature [5] [°C] | survival at 150 mg/kg [6] [%] | Ratio [7] | survival at 150 mg/kg [8] [%] | Ratio ([1]; Mus musculus) | MTC ([3]; Mus musculus) [µM] | PC50 ([4]; Mus musculus) [µM]
1 | CCOc1c(C(C)C)cc2c(c1C(C)C)C=CC1(CCCCC1)N2 | 83 | 16.9 | 10 | 0.12 |  |  |  |  |  |  | 
2 | CCOc1c(C)cc2c(c1C)C=CC(C)(C)N2 | 143 | 182 | 50 | 0.35 | -0.9 | 100 |  |  |  |  | 
3 | CCOc1ccc2c(c1)C(C)CC(C)(C)N2 (stereo not drawn) | 58 | 137 | 50 | 0.86 |  |  |  |  |  |  | 
4 | C1=CC2(CCCCC2)Nc2ccc(Oc3ccccc3)cc21 | 2.1 | 11.2 | 10 | 4.75 |  |  |  |  |  |  | 
5 | CC(C)(C)C(=O)Oc1ccc2c(c1)C=CC1(CCCCC1)N2 | 1.4 | 1.61 | 1 | 0.73 | -2.8 | 30 |  |  |  |  | 
6 | O=c1c2ccccc2[se]n1-c1ccccc1 [EBSELEN] | 10 | 20 | 10 | 1 | -1.85 | 20 |  |  |  |  | 
7 | CC(C)(C)/[N+]([O-])=C/c1ccccc1 |  |  | >200 | >200 | -2.1 |  | Not relevant | 50 |  |  | 
8 | CCOc1ccc2c(c1)C=CC1(CCNCC1)N2 | 20 | 139 | 10 | 0.51 |  |  |  |  |  |  | 
9 | CCOc1cccc2c1NC(C)(C)C=C2 | 100 | 200 | 100 | 1 |  |  |  |  |  |  | 
10 | VITAMIN E |  |  |  |  |  |  |  |  | > 250 | > 200 | 0.8
11 | CCOc1ccc2c(c1)C=CC1(CCCCC1)N2 | 28 | 17.1 | 5 | 0.18 | -0.2 | 80 |  |  |  |  | 
12 | CCOc1c(C)c(C)c2c(c1C)CCC(C)(C)N2 | 250 | 128 | 50 | 0.2 | -0.2 | 100 |  |  |  |  | 
13 | CCOc1c(C)c(C)c2c(c1C)C=CC(C)(C)N2 | 109 | 123 | 50 | 0.46 | -2.5 | 70 |  |  |  |  | 
14 | CCOc1ccc2c(c1)C=CC1(CCN(CC3CC3)CC1)N2 | 260 | 200 | 200 | 0.77 |  |  |  |  |  |  | 
15 | CCOc1cccc2c1NC1(C=C2)CCCCC1 | 27 | 17.9 | 10 | 0.37 | -1 | 60 |  |  |  |  | 
16 | CCOc1c(C)c(C)c2c(c1C)CCC1(CCCCC1)N2 | 67 | 17.2 | 10 | 0.15 | -0.8 | 60 |  |  |  |  | 
17 | CCOc1ccc2c(c1)C(C)=CC(C)(C)N2 [E324] | 122 | 103 | 50 | 0.41 | -1.85 | 80 |  |  |  |  | 
18 | CCOc1c(C)cc2c(c1C)CCC1(CCCCC1)N2 | 1000 | 17.6 | 10 | 0.01 | -2.2 | 80 |  |  |  |  | 
19 | CC1=NN(c2ccccc2)C(=O)C1 [EDARAVONE] | 2.8 | > 200 | 200 | 70.4 | -2.4 | 80 |  |  |  |  | 
20 | CCOc1ccc2c(c1)CCC1(CCCCC1)N2 | 156 | 74.5 | 25 | 0.16 | -0.7 | 60 |  |  |  |  | 
21 | CCOc1c(C)cc2c(c1C)CCC(C)(C)N2 | 625 | 186 | 100 | 0.16 | -0.5 | 80 |  |  |  |  | 
22 | COc1ccc2c(c1)C=CC1(CCCCC1)N2 | 10 | 46.9 | 5 | 0.49 | -1 | 100 |  |  |  |  | 
23 | CC(C)(C)Oc1ccc2c(c1)C=CC1(CCCCC1)N2 | 77 | 13.2 | 10 | 0.13 | -0.2 | 30 |  |  |  |  | 
24 | CCOc1c(C(C)(C)C)cc2c(c1C(C)(C)C)C=CC(C)(C)N2 | 250 | 36.5 | 25 | 0.1 | -1 | 60 |  |  |  |  | 
25 | CCOc1c(C)cc2c(c1C)C=CC1(CCCCC1)N2 | 333 | 19.3 | 10 | 0.03 | -0.3 | 70 |  |  |  |  | 
26 | CCOc1c(C)c(C)c2c(c1C)C=CC1(CCCCC1)N2 | 59 | 17.8 | 10 | 0.17 | -0.8 | 50 |  |  |  |  | 
27 | CCOc1ccc2c(c1)C=CC(C)(C)N2 | 132 | 56 | 25 | 0.19 | -1.7 | 100 |  |  |  |  | 
28 | CCOc1c(C(C)C)cc2c(c1C(C)C)C=CC(C)(C)N2 | 143 | 200 | 10 | 0.07 | -0.05 | 50 |  |  |  |  | 
29 | CCOc1c(C(C)C)cc2c(c1C(C)C)CCC(C)(C)N2 | 167 | 18.2 | 10 | 0.06 | -0.5 | 40 |  |  |  |  | 

Source: ChEMBL document CHEMBL1133038, “New quinolinic derivatives as centrally active antioxidants” (Bioorg Med Chem Lett, 2000)
